Measurements reported in PubChem BioAssay AID192 (DTP/NCI, 2004).
Values joined by “and” are separate entries in the source; they are usually repeats but may differ in a detail not shown here. Equal entries are not always repeated. Inconclusive results and toxic doses are left out.

Tested on: BDF1 mice, B16 melanoma ip, median survival T/C
Test: NCI In Vivo Anticancer Drug Screen. Data for tumor model B16 Melanoma (intraperitoneal) in B6D2F1 (BDF1) mice
Settings: endpoint: median survival time, higher = longer survival
Method in brief: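 Vehicle-treated animals serve as the reference (C); treated animals (T) are scored for survival or tumor size after tumor transplantation.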

[1] = dose: 100.0 mg/kg/injection, schedule: Q01DX009 (ip), vehicle: Klucel (hydroxypropylcellulose) (HPC)
[2] = dose: 200.0 mg/kg/injection, schedule: Q01DX009 (ip), vehicle: Klucel (hydroxypropylcellulose) (HPC)
[3] = dose: 12.5 mg/kg/injection, schedule: Q01DX009 (ip), vehicle: saline
[4] = dose: 100.0 mg/kg/injection, schedule: Q04DX003 (ip), vehicle: Klucel (hydroxypropylcellulose) (HPC)
[5] = dose: 200.0 mg/kg/injection, schedule: Q04DX003 (ip), vehicle: Klucel (hydroxypropylcellulose) (HPC)
[6] = dose: 400.0 mg/kg/injection, schedule: Q04DX003 (ip), vehicle: Klucel (hydroxypropylcellulose) (HPC)
[7] = dose: 25.0 mg/kg/injection, schedule: Q01DX009 (ip), vehicle: saline with Tween-80
[8] = dose: 50.0 mg/kg/injection, schedule: Q01DX009 (ip), vehicle: saline with Tween-80
[9] = dose: 100.0 mg/kg/injection, schedule: Q01DX009 (ip), vehicle: saline with Tween-80
[10] = dose: 200.0 mg/kg/injection, schedule: Q01DX009 (ip), vehicle: saline with Tween-80
[11] = dose: 12.5 mg/kg/injection, schedule: Q01DX009 (ip), vehicle: saline with Tween-80

CC1(C)NC(=O)C(/C=C/c2ccccc2)O1 (stereo not drawn)
T/C (dose: 6.25 mg/kg/injection, schedule: Q01DX009 (ip), vehicle: Klucel (hydroxypropylcellulose) (HPC)): 96 % of control
T/C (dose: 12.5 mg/kg/injection, schedule: Q01DX009 (ip), vehicle: Klucel (hydroxypropylcellulose) (HPC)): 109 % of control
T/C (dose: 25.0 mg/kg/injection, schedule: Q01DX009 (ip), vehicle: Klucel (hydroxypropylcellulose) (HPC)): 121 % of control
T/C [1]: 112 % of control
T/C [2]: 86 % of control

Cc1cc[n+](C)c2ccccc12
T/C (dose: 9.37 mg/kg/injection, schedule: Q01DX009 (ip), vehicle: saline): 95 % of control
T/C (dose: 18.75 mg/kg/injection, schedule: Q01DX009 (ip), vehicle: saline): 92 % of control
T/C (dose: 37.5 mg/kg/injection, schedule: Q01DX009 (ip), vehicle: saline): 97 % of control

CC(C)OCCCN=C(N)N
T/C [3]: 105 % of control
T/C (dose: 25.0 mg/kg/injection, schedule: Q01DX009 (ip), vehicle: saline): 106 % of control
T/C (dose: 50.0 mg/kg/injection, schedule: Q01DX009 (ip), vehicle: saline): 110 % of control

CCOC1c2cc(OC)ccc2C(=O)CCN1S(=O)(=O)c1ccc(C)cc1 (stereo not drawn)
T/C [4]: 93 % of control
T/C [5]: 102 % of control
T/C [6]: 102 % of control

CC(C)=CCC(OC(=O)C=C(C)C)C1=CC(=O)c2c(O)ccc(O)c2C1=O (stereo not drawn)
T/C (dose: 0.25 mg/kg/injection, schedule: Q01DX009 (ip), vehicle: Klucel (hydroxypropylcellulose) (HPC)): 99 % of control
T/C (dose: 0.5 mg/kg/injection, schedule: Q01DX009 (ip), vehicle: Klucel (hydroxypropylcellulose) (HPC)): 92 % of control

O=C(Nc1cccc(C(F)(F)F)c1)c1ccc(C(=O)Nc2cccc(C(F)(F)F)c2)cc1
T/C [7]: 205 % of control
T/C [8]: 184 % of control
T/C [9]: 90 % of control

Cc1c2c(cc3c1[nH]c1ccccc13)C=NCC2
T/C [8]: 107 % of control
T/C [9]: 98 % of control
T/C [10]: 109 % of control

COC(=O)Nc1nc2ccc(C(=O)c3cccs3)cc2[nH]1
T/C (dose: 20.0 mg/kg/injection, schedule: Q01DX015 (ip), vehicle: saline): 97 % of control
T/C (dose: 50.0 mg/kg/injection, schedule: Q04DX003 (ip), vehicle: other): 103 % of control
T/C (dose: 50.0 mg/kg/injection, schedule: Q04DX003 (ip), vehicle: saline with Tween-80): 180 % of control
T/C (dose: 50.0 mg/kg/injection, schedule: Q05DX005 (ip), vehicle: saline): 165 % of control
T/C (dose: 60.0 mg/kg/injection, schedule: Q05DX005 (ip), vehicle: saline): 195 % of control
T/C (dose: 70.0 mg/kg/injection, schedule: Q05DX005 (ip), vehicle: saline): 191 % of control
T/C (dose: 75.0 mg/kg/injection, schedule: Q04DX003 (ip), vehicle: other): 121 % of control
T/C (dose: 100.0 mg/kg/injection, schedule: Q04DX003 (ip), vehicle: saline with Tween-80): 211 % of control

CSC(=C[N+](=O)[O-])SC
T/C (dose: 1.56 mg/kg/injection, schedule: Q01DX009 (ip), vehicle: water): 108 % of control
T/C (dose: 3.13 mg/kg/injection, schedule: Q01DX009 (ip), vehicle: water): 91 % of control
T/C (dose: 6.25 mg/kg/injection, schedule: Q01DX009 (ip), vehicle: water): 95 % of control
T/C (dose: 12.5 mg/kg/injection, schedule: Q01DX009 (ip), vehicle: water): 99 % of control
T/C (dose: 25.0 mg/kg/injection, schedule: Q01DX009 (ip), vehicle: water): 89 % of control

Cc1cc(=NO)cc(C)n1O
T/C (dose: 25.0 mg/kg/injection, schedule: Q01DX009 (ip), vehicle: distilled water + alcohol): 100 % of control
T/C (dose: 50.0 mg/kg/injection, schedule: Q01DX009 (ip), vehicle: distilled water + alcohol): 98 % of control
T/C (dose: 200.0 mg/kg/injection, schedule: Q01DX009 (ip), vehicle: distilled water + alcohol): 86 % of control

Cc1cccc(NC(=O)Nc2cccc(Cl)c2)c1C
T/C [4]: 107 % of control
T/C [5]: 100 % of control
T/C [6]: 103 % of control

Cc1c(Cl)cccc1N=Cc1ccccc1O
T/C (dose: 50.0 mg/kg/injection, schedule: Q01DX009 (ip), vehicle: Klucel (hydroxypropylcellulose) (HPC)): 106 % of control
T/C [1]: 108 % of control
T/C [2]: 97 % of control

CCC12C=CCN3CCC4(c5cc(C(c6cccnc6)c6cc7ccccc7n6C)c(OC)cc5N(C)C4C(O)(C(=O)OC)C1OC(C)=O)C32 (stereo not drawn)
T/C (dose: 0.06 mg/kg/injection, schedule: Q01DX009 (ip), vehicle: water): 109 % of control
T/C (dose: 0.13 mg/kg/injection, schedule: Q01DX009 (ip), vehicle: water): 103 % of control
T/C (dose: 0.25 mg/kg/injection, schedule: Q01DX009 (ip), vehicle: water): 100 % of control
T/C (dose: 0.5 mg/kg/injection, schedule: Q01DX009 (ip), vehicle: water): 113 % of control
T/C (dose: 1.0 mg/kg/injection, schedule: Q01DX009 (ip), vehicle: water): 110 % of control
T/C (dose: 2.0 mg/kg/injection, schedule: Q01DX009 (ip), vehicle: other): 104 % of control
T/C (dose: 2.0 mg/kg/injection, schedule: Q01DX009 (ip), vehicle: water): 107 % of control
T/C (dose: 4.0 mg/kg/injection, schedule: Q01DX009 (ip), vehicle: other): 95 % of control
T/C (dose: 8.0 mg/kg/injection, schedule: Q01DX009 (ip), vehicle: other): 101 % of control
T/C (dose: 16.0 mg/kg/injection, schedule: Q01DX009 (ip), vehicle: other): 105 % of control
T/C (dose: 32.0 mg/kg/injection, schedule: Q01DX009 (ip), vehicle: other): 106 % of control

O=NN(CCCl)C(=O)NC1c2cc(Cl)ccc2-c2c(Cl)cc(Cl)cc21 (stereo not drawn)
T/C [11]: 169 % of control
T/C [7]: 195 % of control
T/C [8]: 181 % of control and 186 % of control
T/C [9]: 104 % of control and 231 % of control
T/C [10]: 175 % of control

S=c1[nH]c2ccccc2s1
T/C (dose: 25.0 mg/kg/injection, schedule: Q01DX009 (ip), vehicle: carboxymethylcellulose (CMC)): 105 % of control
T/C (dose: 50.0 mg/kg/injection, schedule: Q01DX009 (ip), vehicle: carboxymethylcellulose (CMC)): 103 % of control
T/C (dose: 100.0 mg/kg/injection, schedule: Q01DX009 (ip), vehicle: carboxymethylcellulose (CMC)): 109 % of control

Cc1cccc(C)c1NC(=O)C(C)C
T/C [9]: 100 % of control
T/C [10]: 102 % of control
T/C (dose: 400.0 mg/kg/injection, schedule: Q01DX009 (ip), vehicle: saline with Tween-80): 95 % of control

CCCCCCCCCCCCCCCCCCNC(=O)Nc1ccc(C(C)C)cc1
T/C (dose: 25.0 mg/kg/injection, schedule: Q04DX003 (ip), vehicle: Klucel (hydroxypropylcellulose) (HPC)): 86 % of control
T/C [4]: 86 % of control and 89 % of control

Cc1ccc(S(=O)(=O)Nc2ccccc2-c2nc3c(Cl)ccc(Cl)c3c(=O)o2)cc1
T/C [1]: 105 % of control
T/C [2]: 92 % of control

CCC(=O)c1ccc2c(c1)N(CCCN(C)C)c1ccccc1S2
T/C (dose: 3.12 mg/kg/injection, schedule: Q01DX009 (ip), vehicle: saline with Tween-80): 96 % of control
T/C (dose: 6.25 mg/kg/injection, schedule: Q01DX009 (ip), vehicle: saline with Tween-80): 86 % of control
T/C [11]: 96 % of control

CC1(C)OCC(CO)(Nc2nc(N3CC3)nc(N3CC3)n2)CO1
T/C (dose: 0.31 mg/kg/injection, schedule: Q01DX009 (ip), vehicle: saline): 105 % of control and 112 % of control

Nc1nc(=O)n(C2OC(CO)C(O)C2O)cc1F (stereo not drawn)
T/C (dose: 6.25 mg/kg/injection, schedule: Q01DX009 (ip), vehicle: saline): 116 % of control
T/C (dose: 9.0 mg/kg/injection, schedule: Q01DX009 (ip), vehicle: saline): 109 % of control
T/C [3]: 96 % of control
T/C (dose: 18.0 mg/kg/injection, schedule: Q01DX009 (ip), vehicle: saline): 116 % of control
T/C (dose: 24.0 mg/kg/injection, schedule: Q01DX009 (ip), vehicle: saline): 118 % of control
T/C (dose: 54.0 mg/kg/injection, schedule: Q01DX009 (ip), vehicle: saline): 103 % of control

CCOC(=O)C(=O)CC(=O)/C=C/c1ccccc1
T/C [8]: 94 % of control
T/C [9]: 97 % of control
T/C [10]: 97 % of control

COc1cccc2c1C(=O)c1c(O)c3c(c(O)c1C2=O)C[C@@](O)(C(C)O)C[C@@H]3OC1CC(N2CCC(OC)CC2)C(O)C(C)O1 (stereo partly drawn)
T/C (dose: 3.12 mg/kg/injection, schedule: Q01DX001 (ip), vehicle: water): 112 % of control
T/C (dose: 6.25 mg/kg/injection, schedule: Q01DX001 (ip), vehicle: water): 117 % of control
T/C (dose: 12.5 mg/kg/injection, schedule: Q01DX001 (ip), vehicle: water): 173 % of control
T/C (dose: 25.0 mg/kg/injection, schedule: Q01DX001 (ip), vehicle: water): 165 % of control and 166 % of control
T/C (dose: 50.0 mg/kg/injection, schedule: Q01DX001 (ip), vehicle: water): 177 % of control
